According to patent publication US20150126603A1, “TREATMENT OF POULTRY, PIGS OR FISH FOR REDUCING THE FEED CONVERSION RATIO OR INCREASING THEIR BODYWEIGHT GAIN” (TAMINCO, priority 2012, published 2015):
Read-outs that look alike come from different tables or passages of the source.

Columns and labels:
Ross 308 chickens = tested on: Ross 308 chickens
Experimental: A group of 252 Ross 308 chickens were randomly distributed over 14 pens with 18 animals each. All chickens were previously housed in identical conditions, and fed the same diet as the control group in the trial. Every other pen was attributed to either a control diet or that control diet supplemented with 500 mg β-alanine per kg (=595 mg or 6.7 mmol β-alanine per kg dry weight). Water was freely available from drinking cups, and animals were fed ad libitum. The control diet was a commercial broiler diet (Vanden Avenne, Braadkip 114 MB) with 4% corn oil added to increase the level of oxidative stress, as used in earlier studies (Kalmar et al., 2011).
From the age of 24 days to the age of 48 days, the change in bodyweight was measured per bird, but pooled per pen as the experimental unit. At 42 days of age, one male bird per pen was euthanized by intravenous injection of sodium pentobarbital. From the breast and thigh muscle, a sample was dissected and stored airtight at −20° C. until analysis. The breast muscle sample was taken at about one third from the distal end of the breast.

carps = tested on: carps
Experimental: A group of 24 carps were distributed over 12 aquaria with 2 fish each. All fish were previously housed in identical conditions, and fed the same diet as the control group in the trial. Every other aquarium was attributed to either a control diet or that control diet supplemented with 500 mg β-alanine per kg. Feeding was done at 1.5% of the body weight, during 2 feeding times/day. To increase the level of oxidative stress, the carps were kept at 27° C. (4° C. above the advised temperature).
The change in bodyweight after the 14 day feeding experiment was measured per fish, but pooled per aquarium as the experimental unit.

pigs [1] = tested on: pigs
Experimental: At 9 weeks of age, 48 pigs (24 gilts and 24 chirurgical castrated barrows) were divided randomly into groups of four pigs of the same gender. Each group was housed in a separate pen resulting in six pens of four gilts and six pens of four barrows. All pigs were fed the same commercial diet and for three of the six pens of gilts and three of the six pens of barrows their diet was supplemented with 500 mg β-alanine per kg (=568 mg or 6.4 mmol β-alanine per kg dry weight). Water was freely available and the animals were fed ad libitum. After 6 weeks (age of 15 weeks) all animals were euthanized by natrium-pentobarbital.

chickens = settings: 22 mmol/kg bodyweight orally twice a day for five days; cited from earlier work
broiler chickens [2] = settings: cited from earlier work
pigs [3] = settings: cited from earlier work
Japanese flounders = settings: 8.9 g/kg of β-alanine in diet; cited from earlier work
broiler chickens [4] = settings: 0.5% of carnosine in broiler feed; cited from earlier work
[5] = 500 mg/kg beta-alanine in diet, between 24 and 42 days of age
[6] = 500 mg/kg beta-alanine in diet, 14 days
[7] = 500 mg/kg beta-alanine in diet, 14 days, 27° C.
[8] = 0.5% of β-alanine in feed for 4 weeks
[9] = 1 and 2% of β-alanine in feed for 4 weeks
[10] = 0.225% of β-alanine in pig diet
[11] = β-alanine in combination with histidine

## NCCC(=O)O [Beta-alanine, β-alanine]
Ross 308 chickens; [5]
  Average daily gain: 108 g
  Final bodyweight: 2.874 kg
Ross 308 chickens; 500 mg/kg β-alanine in diet
  bodyweight at slaughter vs control: tended to have a higher bodyweight at slaughter
  bodyweight gain vs control: tended to have a higher bodyweight gain
Ross 308 chickens; baseline at 24 days of age, 500 mg/kg group
  Initial bodyweight: 1.362 kg
carps; [6]
  Average feed intake: 44.1 g
  feed conversion ratio: 2.7 g:g
carps; [7]
  Average weight gain: 19.0 g
  Final bodyweight: 230.1 g
carps; baseline, 500 mg/kg group
  Initial bodyweight: 211.1 g
Pigs [1]; 500 mg/kg beta-alanine in diet, 9 to 15 weeks of age
  Bodyweight gain over 6 weeks: 25.4
Pigs [1]; 500 mg/kg beta-alanine in diet, 15 weeks of age
  Final bodyweight: 44.1 kg
Pigs [1]; 500 mg/kg β-alanine in diet
  bodyweight at slaughter vs control: tend to have a higher bodyweight at slaughter
  bodyweight gain vs control: tended to have a higher bodyweight gain
  overall growth of the piglets: increases the overall growth
Pigs [1]; 500 mg/kg β-alanine in diet, 6 weeks
  death or illness during the trial: No animals died or became ill
Pigs [1]; baseline at 9 weeks of age, 500 mg/kg group
  Initial bodyweight: 18.7 kg
chickens
  bodyweight gain: also decreased
  feed consumption: also decreased
  feed conversion ratio: decreased
Broiler chickens [2]; [8]
  bodyweight gain: no significant changes
  feed conversion ratio: no significant changes
Broiler chickens [2]; [9]
  bodyweight gain: decreased significantly
  feed conversion ratio: increased
Pigs [3]; [10]
  bodyweight gain: decreased somewhat
  feed conversion ratio: decreased somewhat
Pigs [3]; [11]
  bodyweight gain: decreased even more
  feed conversion ratio: increased to become higher than the control
Japanese flounders
  bodyweight gain: increased somewhat but not significantly
  feed conversion ratio: increased significantly

## NCCC(=O)N[C@@H](Cc1c[nH]cn1)C(=O)O [carnosine, β-alanyl-L-histidine]
Broiler chickens [4]
  chicken meat quantity and quality: improve
  feed conversion ratio: improved but not statistically significantly
  weight gain: improved but not statistically significantly
